Results: US20130274838A1, “OPTICAL CONTROL OF CARDIAC FUNCTION” (The Research Foundation of State University of New York, priority 2010, published 2013)

What was measured:
[1] = test system: cell pairs of adult canine ventricular myocytes and HEK-ChR2 (gap junctional coupling); experiment: Carbenoxolone uncoupling of tandem cell units, dual patch clamp with optical pacing; type: cell-based; settings: 200 μM carbenoxolone perfusion, light-triggered action potentials before, during and after washout (FIG. 5f)
Description: Dual patch clamp experiments were performed within 48 hours after plating. Briefly, experiments were carried out on heterologous (HEK-ChR2— canine myocyte) cell pairs within 48 hours after plating, as described previously. A dual whole-cell voltage-clamp method was used to control and record the membrane potential of both cells and to measure associated membrane and junctional currents. Each cell of a pair was voltage clamped at the same potential by two separate patch clamp amplifiers (Axopatch 200, Axon Instruments). To record junctional conductance, brief voltage steps (±10 mV, 400 ms) were applied to one cell of a pair, whereas the other cell was held at constant voltage and the junctional currents were recorded from the unstepped cell. Membrane and action potentials were recorded in current-clamp mode. For electrical recordings, glass coverslips with adherent cells were transferred to an experimental chamber mounted on the stage of an inverted microscope (Olympus-IX71) equipped with a fluorescence imaging system. […] When filled, the resistance of the pipettes measured 1-4MΩ. […] Contractility movies were recorded in response to optical pacing before and during administration of carbenoxolone, and upon washout to assess the role of gap junctional coupling in the functionality of the tandem cell unit.

[2] = test system: cardiac syncytium of neonatal rat cardiomyocytes and HEK-ChR2 (gap junctional coupling); experiment: Carbenoxolone uncoupling in cardiac syncytium, contractility under optical pacing; type: cell-based; settings: 200 μM carbenoxolone for 20 min without perfusion, contractility in response to optical pacing
Description: Carbenoxolone, CBX, (Sigma), a gap junctional uncoupler, was used at a concentration 200 μM in the dual-patch experiments with canine cardiomyocytes and HEK-ChR2 or in the cardiac syncytium of neonatal rat cardiomyocytes and HEK-ChR2. In the latter case, CBX was applied for 20 min (without perfusion) in the co-cultures of HEK-ChR2 cells and cardiomyocytes. Contractility movies were recorded in response to optical pacing before and during administration of carbenoxolone, and upon washout to assess the role of gap junctional coupling in the functionality of the tandem cell unit. Microscopic imaging for confirmation of gene expression or for documenting contractions by optical excitation was done with the Olympus FluoView™ FV1000 confocal system at room temperature. An EMCCD camera (ImagEM EMCCD camera from Hamamatsu, Bridgewater, N.J.) attached to the Olympus FluoView™ FV1000 microscope was used to record contractility movies at 20 fps with 60× oil lens (NA=1.42) using SlideBook 5 software (Intelligent Imaging Innovations, Denver, Colo.). In addition, contractility response was also documented by automatic optical tracking of cell length at 250 Hz using an IonOptix videosystem (IonOptix) attached to a Nikon TE2000 inverted microscope.

CC1(C)[C@@H](OC(=O)CCC(=O)O)CC[C@]2(C)[C@H]3C(=O)C=C4[C@@H]5C[C@@](C)(C(=O)O)CC[C@]5(C)CC[C@@]4(C)[C@]3(C)CC[C@@H]12 [cabenoxolone, carbenoxolone]
effect of pharmacological uncoupling on light-sensitivity of the myocytes in the TCUs [1]: abolished the light-sensitivity of the myocytes in the TCUs
effect of pharmacological uncoupling on light-sensitivity of the myocytes in the TCUs [2]: abolished the light-sensitivity of the myocytes in the TCUs
